Measurements: US8268814B2, “Substituted sulfonamide compounds” (Gruenenthal GmbH, priority 2008, dated 2012)

What was measured:
[1] = target: T1, human B1R receptor (hB1R) (Homo sapiens, UniProt P46663); experiment: Functional FLIPR Ca2+ assay on the bradykinin 1 receptor, human (hB1R CHO K1 cells); assay type: cell-based; details: test substance 10 μM; CHO K1 cells transfected with human B1R gene; agonist Lys-Des-Arg9-bradykinin at EC80; % inhibition compared with maximum achievable inhibition; read-out: B1R antagonism, human (10 μM] % inhibition
T1 construct: expressed in transfected cells; host or cells: CHO K1 cells (Chinese hamster ovary), stably transfected
T1 sequence (P46663 1-353): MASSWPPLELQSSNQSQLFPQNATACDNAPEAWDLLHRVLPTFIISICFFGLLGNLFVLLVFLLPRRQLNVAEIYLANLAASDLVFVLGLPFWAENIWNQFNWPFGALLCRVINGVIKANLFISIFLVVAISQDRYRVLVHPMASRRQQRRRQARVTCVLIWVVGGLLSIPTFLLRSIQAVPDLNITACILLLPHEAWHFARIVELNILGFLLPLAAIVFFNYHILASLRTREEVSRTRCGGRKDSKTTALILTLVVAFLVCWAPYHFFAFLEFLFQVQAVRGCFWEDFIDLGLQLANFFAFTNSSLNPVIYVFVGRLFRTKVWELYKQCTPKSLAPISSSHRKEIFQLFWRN
In short: (§1)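 Stably transfected CHO K1 cells expressing human or rat B1R, Fluo-4-loaded, Ca2+ influx read by FLIPR (peak fluorescence). Compounds (10 μM for % activation) preincubated 10-20 min, then EC80 agonist added: Lys-Des-Arg9-bradykinin for human, Des-Arg9-bradykinin for rat; % inhibition versus maximal inhibition, IC50 from concentration series.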

[2] = target: T2, B1R receptor of the rat (rB1R) (Rattus norvegicus, UniProt P97583); experiment: Functional FLIPR Ca2+ assay on the bradykinin 1 receptor, rat (rB1R CHO K1 cells); assay type: cell-based; details: test substance 10 μM; CHO K1 cells transfected with rat B1R gene; agonist Des-Arg9-bradykinin at EC80; % inhibition compared with maximum achievable inhibition; read-out: B1R antagonism, rat [10 μM] % inhibition
T2 construct: expressed in transfected cells; host or cells: CHO K1 cells (Chinese hamster ovary), stably transfected
T2 sequence (P97583 1-337): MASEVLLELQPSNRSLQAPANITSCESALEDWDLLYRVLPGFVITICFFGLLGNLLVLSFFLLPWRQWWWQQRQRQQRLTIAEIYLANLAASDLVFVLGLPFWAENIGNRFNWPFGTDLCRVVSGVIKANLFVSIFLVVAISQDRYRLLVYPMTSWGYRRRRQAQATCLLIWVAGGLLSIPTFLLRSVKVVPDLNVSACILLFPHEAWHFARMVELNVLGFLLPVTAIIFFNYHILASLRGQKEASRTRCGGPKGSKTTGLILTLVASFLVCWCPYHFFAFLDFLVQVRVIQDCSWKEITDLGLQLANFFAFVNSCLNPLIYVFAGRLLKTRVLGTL
In short: as §1

inhibition at 10 µM [1] | inhibition at 10 µM [2] | SMILES
99% | 101% | COc1cc(C)c(S(=O)(=O)N2CCCCC2COCC(=O)N2CCc3onc(CN4CCOCC4)c3C2)c(C)c1 (stereo not drawn) [Example 29, 2-((1-(4-methoxy-2,6-dimethylphenylsulfonyl)piperidin-2-yl)methoxy)-1-(3-(morpholinomethyl)-6,7-dihydroisoxazolo[4,5-c]pyridin-5(4H)-yl)ethanone]
99% | 106% | COc1cc(C)c(S(=O)(=O)N2CCC[C@H]2COCC(=O)N2CCc3sc(CN4CCCCC4)cc3C2)c(C)c1 [Example 63, 2-[[(2S)-1-[(4-methoxy-2,6-dimethyl-phenyl)sulfonyl]-pyrrolidin-2-yl]-methoxy]-1-[2-(piperidin-1-yl-methyl)-4,5,6,7-tetrahydro-thieno[3,2-c]pyridin-5-yl]-ethanone]
100% | 105% | COc1cc(C)c(S(=O)(=O)N2CCCCC2COCC(=O)N2CCc3onc(CN(C)C)c3C2)c(C)c1 (stereo not drawn) [Example 31, 1-(3-((dimethylamino)methyl)-6,7-dihydroisoxazolo[4,5-c]pyridin-5(4H)-yl)-2-((1-(4-methoxy-2,6-dimethylphenylsulfonyl)piperidin-2-yl)methoxy)ethanone]
34% | 70% | O=C(C[C@@H](NS(=O)(=O)c1ccc2ccccc2c1)c1ccccc1)N1CCc2sccc2C1c1ccc(F)cc1 (stereo partly drawn) [Example 21, N-((1R)-3-(4-(4-fluorophenyl)-6,7-dihydrothieno[3,2-c]pyridin-5(4H)-yl)-3-oxo-1-phenylpropyl)naphthalene-2-sulfonamide]
99% | 97% | COc1cc(C)c(S(=O)(=O)N2CCCCC2COCC(=O)N2CCc3nc(Cc4ccncc4)sc3C2)c(C)c1 (stereo not drawn) [Example 38, 2-((1-(4-methoxy-2,6-dimethylphenylsulfonyl)piperidin-2-yl)methoxy)-1-(2-(pyridin-4-ylmethyl)-6,7-dihydrothiazolo[5,4-c]pyridin-5(4H)-yl)ethan-1-one]
100% | 102% | COc1cc(C)c(S(=O)(=O)N2CCCCC2COCC(=O)N2CCc3sc(CN4CCN(C)CC4)cc3C2)c(C)c1 (stereo not drawn) [Example 50, 2-((1-(4-methoxy-2,6-dimethylphenylsulfonyl)piperidin-2-yl)methoxy)-1-(2-((4-methylpiperazin-1-yl)methyl)-6,7-dihydrothieno[3,2-c]pyridin-5(4H)-yl)ethan-1-one]
51% | 90% | O=C(CC1CCCCN1S(=O)(=O)c1cccc(C(F)(F)F)c1)N1CCc2nc(Cc3ccncc3)sc2C1 (stereo not drawn) [Example 40, 1-(2-(pyridin-4-ylmethyl)-6,7-dihydrothiazolo[5,4-c]pyridin-5(4H)-yl)-2-(1-(3-(trifluoromethyl)phenylsulfonyl)piperidin-2-yl)ethan-1-one]
97% | 101% | O=C(C[C@@H](NS(=O)(=O)c1ccc2ccccc2c1)c1ccccc1)N1CCc2sc(CN3CCCCC3)cc2C1 [Example 26, (R)—N-(3-Oxo-1-phenyl-3-(2-(piperidin-1-ylmethyl)-6,7-dihydrothieno[3,2-c]pyridin-5(4H)-yl)propyl)naphthalene-2-sulfonamide]

The remaining lines, values behind:

SMILES | inhibition at 10 µM [1] | inhibition at 10 µM [2]
Cc1cc(S(=O)(=O)N2CCCCC2CCC(=O)N2CCc3sccc3C2c2cccc(F)c2)c(C)cc1Cl (stereo not drawn) [Example 35, 3-(1-(4-chloro-2,5-dimethylphenylsulfonyl)piperidin-2-yl)-1-(4-(3-fluorophenyl)-6,7-dihydrothieno[3,2-c]pyridin-5(4H)-yl)propan-1-one] | 41% | 3%
Cc1cc(S(=O)(=O)N2CCCCC2CCC(=O)N2CCc3sccc3C2c2ccncc2)c(C)cc1Cl (stereo not drawn) [Example 55, 3-[1-[(4-chloro-2,5-dimethyl-phenyl)sulfonyl]-piperidin-2-yl]-1-(4-pyridin-4-yl-4,5,6,7-tetrahydro-thieno[3,2-c]pyridin-5-yl)-propan-1-one] | 88% | 103%
Cc1cccc(C2c3ccsc3CCN2C(=O)CCC2CCCCN2S(=O)(=O)c2cc(C)c(Cl)cc2C)c1 (stereo not drawn) [Example 10, 3-(1-(4-chloro-2,5-dimethylphenylsulfonyl)piperidin-2-yl)-1-(4-m-tolyl-6,7-dihydrothieno[3,2-c]pyridin-5(4H)-yl)propan-1-one] | 78% | 105%
COc1cc(C)c(S(=O)(=O)N(C)CCOCC(=O)N2CCc3nc(-c4ccncc4)sc3C2)c(C)c1 [Example 49, 4-methoxy-N,2,6-trimethyl-N-(2-(2-oxo-2-(2-(pyridin-4-yl)-6,7-dihydrothiazolo[5,4-c]pyridin-5(4H)-yl)ethoxy)ethyl)benzenesulfonamide] | 99% | 95%
COc1cc(C)c(S(=O)(=O)N2CCCCC2COCC(=O)N2CCc3onc(-c4ccncc4)c3C2)c(C)c1 (stereo not drawn) [Example 02, 2-((1-(4-methoxy-2,6-dimethylphenylsulfonyl)piperidin-2-yl)methoxy)-1-(3-(pyridin-4-yl)-6,7-dihydroisoxazolo[4,5-c]pyridin-5(4H)-yl)ethanone] | 100% | 101%
Cc1cccc(Cl)c1S(=O)(=O)N1CCCC[C@H]1COCC(=O)N1CCc2sc(CN3CCCCC3)cc2C1 [Example 59, 2-[[(2S)-1-[(2-chloro-6-methyl-phenyl)sulfonyl]-piperidin-2-yl]-methoxy]-1-[2-(piperidin-1-yl-methyl)-4,5,6,7-tetrahydro-thieno[3,2-c]pyridin-5-yl]-ethanone] | 100% | 104%
COc1cc(C)c(S(=O)(=O)N2CCCCC2COCC(=O)N2CCc3sc(CN4CCCCC4)cc3C2)c(C)c1 (stereo not drawn) [Example 27, 2-((1-(4-Methoxy-2,6-dimethylphenylsulfonyl)piperidin-2-yl)methoxy)-1-(2-(piperidin-1-ylmethyl)-6,7-dihydrothieno[3,2-c]pyridin-5(4H)-yl)ethanone] | 100% | 106%
Cc1cccc(Cl)c1S(=O)(=O)N(CCOCC(=O)N1CCc2sc(CN3CC(F)(F)C3)cc2C1)C1CC1 [Example 57, 2-Chloro-N-cyclopropyl-N-[2-[2-[2-[(3,3-difluoro-azetidin-1-yl)-methyl]-4,5,6,7-tetrahydro-thieno[3,2-c]pyridin-5-yl]-2-oxo-ethoxy]-ethyl]-6-methyl-benzenesulfonic acid amide] | 100% | 99%
O=C(CC1CCCCN1S(=O)(=O)c1cccc(C(F)(F)F)c1)N1CCc2sccc2C1c1ccncc1 (stereo not drawn) [Example 54, 1-(4-pyridin-4-yl-4,5,6,7-tetrahydro-thieno[3,2-c]pyridin-5-yl)-2-[1-[[3-(trifluoromethyl)phenyl]sulfonyl]-piperidin-2-yl]-ethanone] | 16% | 101%
COc1cc(C)c(S(=O)(=O)N(C)CCOCC(=O)N2CCc3nc(Cc4ccncc4)sc3C2)c(C)c1 [Example 39, 4-methoxy-N,2,6-trimethyl-N-(2-(2-oxo-2-(2-(pyridin-4-ylmethyl)-6,7-dihydrothiazolo[5,4-c]pyridin-5(4H)-yl)ethoxy)ethyl)benzenesulfonamide] | 100% | 99%
O=C(CC1CCCCN1S(=O)(=O)c1cccc(C(F)(F)F)c1)N1CCc2nc(-c3ccncc3)sc2C1 (stereo not drawn) [Example 37, 1-(2-(pyridin-4-yl)-6,7-dihydrothiazolo[5,4-c]pyridin-5(4H)-yl)-2-(1-(3-(trifluoromethyl)phenylsulfonyl)piperidin-2-yl)ethan-1-one] | 28% | 97%
CCC1c2ccsc2CCN1C(=O)COCCN(C)S(=O)(=O)c1c(C)cc(OC)cc1C (stereo not drawn) [Example 18, N-(2-(2-(4-Ethyl-6,7-dihydrothieno[3,2-c]pyridin-5(4H)-yl)-2-oxoethoxy)ethyl)-4-methoxy-N,2,6-trimethyl benzenesulfonamide] | 99% | 109%
COc1cc(C)c(S(=O)(=O)N2CCCCC2COCC(=O)N2CCc3onc(CN4CCCCC4)c3C2c2ccccc2)c(C)c1 (stereo not drawn) [Example 126, 2-((1-(4-Methoxy-2,6-dimethylphenylsulfonyl)piperidin-2-yl)methoxy)-1-(4-phenyl-3-(piperidin-1-ylmethyl)-6,7-dihydroisoxazolo[4,5-c]pyridin-5(4H)-yl)ethanone] | 90% | 104%
